Laboratory results taken from US11578071B2, “Preparation of pyrazolo[3,4-B]pyridines as antimalarials” (University of Kentucky Research Foundation, priority 2019, dated 2023).

Experiments:
[1] = system: erythrocytes infected with the 3D7 strain; test: FACS Killing Rate Assay; assay type: cell-based, Plasmodium falciparum; set-up: % Survival at 0 h: concentration or dose not given beside the values; settings: for % Survival (24 h) / % Survival (48 h) / % Survival at 0 h: 3D7; for % Survival (24 h): 24 h treatment at 10× IC50; for % Survival (24 h) / % Survival (48 h): mean ± SD of two measurements; for % Survival (48 h): 48 h treatment at 10× IC50; for % Survival at 0 h: treatment time 0 h; for killing profile: in words, compared with chloroquine, pyrimethamine, atovaquone, artesunate
Experimental: After treatment, the compound is removed and the culture is diluted (⅓^rd dilution) using fresh erythrocytes (2% hematocrit) previously labeled with CFDA-SE (carboxylfluorescein diacetate succinimidyl ester, Life Technologies). […] Samples were analyzed using the Attune N×T software package.

[2] = system: P. falciparum 3D7 gametocytes; test: Gametocyte EC50 determination; assay type: cell-based; settings: Plasmodium falciparum
Experimental: Asexual cultures of P. falciparum 3D7 parasites were used to seed gametocyte cultures at 1% parasitemia and 4% hematocrit as previously described. Culture medium (RPMI medium with 25 mM HEPES, 50 mg/L hypoxanthine, 2 g/L sodium bicarbonate and 10% human serum) was replaced daily for at least 14 day with all solutions, pipettes and work surfaces treated at 37° C. Typical cultures follow the pattern of asexual parasitemia rising to a peak and crashing at days 4-5, with stage II gametocytes visible at day 7, stage III visible at day 9, stage IV visible at day 11, and stage V visible at day 14 with high levels of exflagellation.
To determine EC50 values, the number of exflagellation centers per field, mean oocyst intensity and prevalence of infection were normalized to the respective DMSO treated control and % inhibition calculated. Tested compounds were prepared as a DMSO solutions from 25 μM to 0.026 μM across 22 points. Percentage inhibition data obtained from each individual parameter was fitted to a four-parameter logistic equation with variable slope using GraphPad Prism 6.07 for which compound concentrations were first transformed to their respective log10 values. The data were then fitted using these transformed values without defining constraints.

[3] = system: P. berghei luciferase sporozoites in HepG2-A16-CD81EGFP cells; test: Plasmodium Berghei Luciferase Liver Stage Bioluminescence Assay; assay type: cell-based; settings: in words
HepG2-A16-CD81EGFP cells = test: HepG2 Cytotoxicity Bioluminescence Assay; assay type: cell-based; settings: Homo sapiens, 48 h, mean ± SD of two measurements

| Structure (SMILES) | melting point | % Survival at 0 h [1] | also measured |
| --- | --- | --- | --- |
| C[C@H]1[C@H](OC(=O)CCC(=O)O)O[C@@H]2O[C@@]3(C)CC[C@H]4[C@H](C)CC[C@@H]1[C@@]24OO3 [Artesunate] | – | 100% | % Survival (24 h) [1]: 17.50 ± 3.68%; % Survival (48 h) [1]: 6.44 ± 0.51% |
| O=C1C(O)=C([C@H]2CC[C@H](c3ccc(Cl)cc3)CC2)C(=O)c2ccccc21 [Atovaquone] | – | 100% | % Survival (24 h) [1]: 78.96 ± 3.89%; % Survival (48 h) [1]: 39.89 ± 4.37% |
| CCN(CC)CCCC(C)Nc1ccnc2cc(Cl)ccc12 (stereo not drawn) [Chloroquine] | – | 100% | % Survival (24 h) [1]: 18.69 ± 7.34%; % Survival (48 h) [1]: 9.21 ± 2.08% |
| CCc1ccc(-c2nc3c(c(C)nn3-c3ccccc3)c(-c3ccccc3Cl)c2C#N)cc1 [Compound 10, 4-(2-Chlorophenyl)-6-(4-ethylphenyl)-3-methyl-1-phenyl-1H-pyrazolo[3,4-b]pyridine-5-carbonitrile] | – | 100% | killing profile [1]: slow killing profile; EC50 [2]: > 25 µM; potency against the liver stage of the parasite [3]: sub-micromolar potency; EC50 (HepG2-A16-CD81EGFP cells): > 50 µM |
| CCc1ccc(-c2nc3c(c(C)nn3-c3ccccc3)c(-c3ccccc3OC(F)(F)F)c2C#N)cc1 [Compound 17, 6-(4-Ethylphenyl)-3-methyl-1-phenyl-4-[2-(trifluoromethoxy)phenyl]-1H-pyrazolo[3,4-b]pyridine-5-carbonitrile] | – | – | EC50 [2]: > 25 µM; potency against the liver stage of the parasite [3]: sub-micromolar potency; EC50 (HepG2-A16-CD81EGFP cells): > 25 µM |
| Cc1nn(-c2ccccc2)c2nc(-c3ccc(C(C)(C)C)cc3)c(C#N)c(-c3ccccc3O)c12 [Compound 27, 6-(4-tert-butylphenyl)-4-(2-hydroxyphenyl)-3-methyl-1-phenyl-1H-pyrazolo[3,4-b]pyridine-5-carbonitrile] | – | 100% | killing profile [1]: moderate killing profile; EC50 [2]: > 25 µM |
| Cc1nn(-c2ccccc2)c2nc(-c3ccc(C(F)(F)F)cc3)c(C#N)c(-c3ccccc3O)c12 [Compound 30, 4-(2-hydroxyphenyl)-3-methyl-1-phenyl-6-[4-(trifluoromethyl)phenyl]-1H-pyrazolo[3,4-b]pyridine-5-carbonitrile] | 254 to 256 °C | – | – |
| Cc1nn(-c2ccccc2)c2nc(-c3ccc(F)cc3)c(C#N)c(-c3ccccc3O)c12 [Compound 31, 6-(4-fluorophenyl)-4-(2-hydroxyphenyl)-3-methyl-1-phenyl-1H-pyrazolo[3,4-b]pyridine-5-carbonitrile] | 234 to 236 °C | – | – |
| Cc1nn(-c2ccccc2)c2nc(-c3ccc(Cl)cc3)c(C#N)c(-c3ccccc3O)c12 [Compound 32, 6-(4-chlorophenyl)-4-(2-hydroxyphenyl)-3-methyl-1-phenyl-1H-pyrazolo[3,4-b]pyridine-5-carbonitrile] | 281 to 282 °C | – | – |
| Cc1nn(-c2ccccc2)c2nc(-c3ccc(I)cc3)c(C#N)c(-c3ccccc3O)c12 [Compound 33, 4-(2-hydroxyphenyl)-6-(4-iodophenyl)-3-methyl-1-phenyl-1H-pyrazolo[3,4-b]pyridine-5-carbonitrile] | 289 to 291 °C | – | – |
| Cc1nn(-c2ccccc2)c2nc(-c3ccc(C#N)cc3)c(C#N)c(-c3ccccc3O)c12 [Compound 34, 6-(4-cyanophenyl)-4-(2-hydroxyphenyl)-3-methyl-1-phenyl-1H-pyrazolo[3,4-b]pyridine-5-carbonitrile] | 165 to 166 °C | – | – |
| Cc1nn(-c2ccccc2)c2nc(-c3ccc([N+](=O)[O-])cc3)c(C#N)c(-c3ccccc3O)c12 [Compound 35, 4-(2-hydroxyphenyl)-3-methyl-6-(4-nitrophenyl)-1-phenyl-1H-pyrazolo[3,4-b]pyridine-5-carbonitrile] | 257 to 258 °C | – | – |
| CCc1nc(N)nc(N)c1-c1ccc(Cl)cc1 [Pyrimethamine] | – | 100% | % Survival (24 h) [1]: 56.37 ± 2.55%; % Survival (48 h) [1]: 16.02 ± 4.36% |

Second part, led by results:

| melting point | Structure (SMILES) | % Survival at 0 h [1] | also measured |
| --- | --- | --- | --- |
| 201 to 203 °C | CCc1ccc(-c2nc3c(c(C)nn3-c3ccccc3)c(-c3ccccc3C#N)c2C#N)cc1 [Compound 7, 4-(2-Cyanophenyl)-6-(4-ethylphenyl)-3-methyl-1-phenyl-1H-pyrazolo[3,4-b]pyridine-5-carbonitrile] | – | – |
| 205 to 207 °C | CCc1ccc(-c2nc3c(c(C)nn3-c3ccccc3)c(-c3ccccc3I)c2C#N)cc1 [Compound 8, 6-(4-Ethylphenyl)-4-(2-iodophenyl)-3-methyl-1-phenyl-1H-pyrazolo[3,4-b]pyridine-5-carbonitrile] | – | – |
| 208 to 209 °C | CCc1ccc(-c2nc3c(c(C)nn3-c3ccccc3)c(-c3ccccc3Br)c2C#N)cc1 [Compound 9, 4-(2-Bromophenyl)-6-(4-ethylphenyl)-3-methyl-1-phenyl-1H-pyrazolo[3,4-b]pyridine-5-carbonitrile] | – | – |
| 197 to 199 °C | CCc1ccc(-c2nc3c(c(C)nn3-c3ccccc3)c(-c3ccccc3F)c2C#N)cc1 [Compound 11, 6-(4-Ethylphenyl)-4-(2-fluorophenyl)-3-methyl-1-phenyl-1H-pyrazolo[3,4-b]pyridine-5-carbonitrile] | – | – |
| 203 to 204 °C | CCc1ccc(-c2nc3c(c(C)nn3-c3ccccc3)c(-c3ccccc3C)c2C#N)cc1 [Compound 12, 6-(4-Ethylphenyl)-3-methyl-4-(2-methylphenyl)-1-phenyl-1H-pyrazolo[3,4-b]pyridine-5-carbonitrile] | – | – |
| 193 to 195 °C | CCc1ccc(-c2nc3c(c(C)nn3-c3ccccc3)c(-c3ccccc3C(F)(F)F)c2C#N)cc1 [Compound 15, 6-(4-Ethylphenyl)-3-methyl-1-phenyl-4-[2-(trifluoromethyl)phenyl]-1H-pyrazolo[3,4-b]pyridine-5-carbonitrile] | – | – |
| 196 to 198 °C | CCc1ccc(-c2nc3c(c(C)nn3-c3ccccc3)c(-c3ccccc3OC)c2C#N)cc1 [Compound 16, 6-(4-Ethylphenyl)-4-(2-methoxyphenyl)-3-methyl-1-phenyl-1H-pyrazolo[3,4-b]pyridine-5-carbonitrile] | – | – |
